How the values were obtained:
Type in all cases: cell-based, human
[1] = test system: 5637 parental cell line (P0); assay: MTT cell viability after gemcitabine treatment, parental cell line; details: C of FIG. 1
Protocol: (§1) For cell proliferation analysis, 1×10^3 cells were seeded in a 96-well plate and cultured for 24 hours. Thereafter, the cells were treated with 1 μM GEM for 0, 24, 48, and 72 hours, and cell viability was measured at each time point. The cells were then treated with thiazolyl blue tetrazolium bromide (MTT) (Sigma-Aldrich, St. Louis, MO, USA) and reacted for 1 hour. After the reaction was completed, the medium containing MTT was fully removed, and MTT formazan was dissolved using dimethyl sulfoxide (DMSO, Duchefa Biochemie, BH Haarlem, Netherlands). Thereafter, the absorbance was measured at 540 nm using a spectrophotometer microplate reader (Victor 3).

[2] = test system: GRCA cell lines (gemcitabine-resistant 5637); assay: MTT cell viability / IC50 for gemcitabine, GRCA cell lines
Protocol: (§2) To analyze stepwise molecular mechanisms occurring during a process of anticancer drug resistance in bladder cancer patients, bladder cancer cell lines having resistance to gemcitabine (GEM) as a representative anticancer drug for bladder cancer were constructed. Specifically, five candidate groups A to E of the 5637 cell line were treated with 5 μM GEM (Eli Lilly and company, IN, USA) and cultured for 3 days. Thereafter, the residual cells were washed with phosphate-buffered saline (PBS) and replaced with a new medium. The process was repeated until the cells recovered to 90% confluency, and after each stage was completed, several cell stocks in the same state were stored in liquid nitrogen. Thereafter, the recovered cells were inoculated in a plate and additionally treated with GEM. A total of 15-phase GEM-resistant bladder cancer cell lines were constructed using the method, which were named GRCA, GRCB, GRCC, GRCD, and GRCE according to each group.
as §1

[3] = test system: GRCB cell lines (gemcitabine-resistant 5637); assay: MTT cell viability / IC50 for gemcitabine, GRCB cell lines
Protocol: as §2, §1

[4] = P15 cell line, compared to other candidate groups, C of FIG. 1

Nc1ccn([C@@H]2O[C@H](CO)[C@@H](O)C2(F)F)c(=O)n1 [GEM, gemcitabine]
Resistance to GEM (cell viability) [1]: sensitive | IC50 values for GEM ([2]; P0, P3, P7, P15 cell lines, A of FIG. 2): increased in a phase-dependent manner | Resistance to GEM (cell viability) [2, 4]: significantly highly resistant | Resistance to GEM across stages ([2]; stages P0, P2, P3, P5, P7, P10, P15, D of FIG. 1): increased in a phase-dependent manner | IC50 values for GEM ([3]; P0, P3, P7, P15 cell lines, B of FIG. 2): increased in a phase-dependent manner | Resistance to GEM (cell viability) [3, 4]: significantly highly resistant | Resistance to GEM across stages ([3]; stages P0, P2, P3, P5, P7, P10, P15, E of FIG. 1): increased in a phase-dependent manner
